From patent US20080139623A1, “Amorphous and crystalline forms of pantoprazole magnesium salt” (priority 2006, published 2008) come the findings set out here.

Holding throughout (assay type): physicochemical
Data set [1] can be described thus: Analysis of particle size by light microscope in light oil. The source says:
Samples of crystalline pantoprazole magnesium Forms A (prepared according to example 15), E, F, G, and H were each analyzed by light microscope in light oil. The results are depicted in FIGS. 29-33, respectively.

A short description of data set [2]: Solubility in water at 25° C. (saturated solution, HPLC assay). The following applies: for solubility: in water at 25° C. Here is the method:
The solubilities of amorphous pantoprazole magnesium and pantoprazole magnesium Form A were each measured in water at 25° C. The certain amount of amorphous sample and form A sample were added each to 50 ml of distillated water. The solutions were kept saturated during the experiment. The aliquots were taken, filtered and injected into HPLC by the method of assay determination for PNT-Mg and the concentrations were calculated by comparison of absorptions at certain wavelength against the known concentration of PNT-Mg standard.

A short description of data set [3]: Stability of crystalline form under heating (100° C., two weeks, PXRD). The following applies: heated at 100° C. for two weeks, analyzed by PXRD. How it is done:
The powder X-ray diffraction was performed on Scintag X-ray powder diffractometer model X'TRA with a solid state detector. Copper radiation of 1.5418 Å was used. The sample holder was a round standard aluminum sample holder with rough zero background. The scanning parameters were range: 2-40 degrees two-theta; scan mode: continuous scan; step size: 0.05 deg.; and at a rate of 5 deg/min.
Samples of crystalline pantoprazole magnesium Form C and Form A (prepared according to example 15) were each heated at 100° C. for two weeks. The samples were then analyzed by PXRD.

For the substance “5-difluoromethoxy-2-[[3,4-dimethoxy-2-pyridinyl)methyl]sulfinyl]-1H-benzimidazole magnesium salt [Form G]”, the particle size entry in data set [1] is given as “less than 10 microns”.

As for “5-difluoromethoxy-2-[[3,4-dimethoxy-2-pyridinyl)methyl]sulfinyl]-1H-benzimidazole magnesium salt [Form H]”, the “particle shape / description” value in data set [1] is given as “very small particles”.

Turning to “5-difluoromethoxy-2-[[3,4-dimethoxy-2-pyridinyl)methyl]sulfinyl]-1H-benzimidazole magnesium salt [Form A, reference compound]”, the solubility result in data set [2] is listed as “about 0.2 mg/ml”. Also, in data set [3], the “crystalline form after heating (polymorphic stability)” value is recorded as “transformed to amorphous form”. Further, in data set [1], the “particle shape / description” value was “plate-shaped particles” and the particle size result is given as “less than 50 microns”.

In the case of “5-difluoromethoxy-2-[[3,4-dimethoxy-2-pyridinyl)methyl]sulfinyl]-1H-benzimidazole magnesium salt [Form C]”, the “crystalline form after heating (polymorphic stability)” value in data set [3] was “maintained its crystalline form”.

Turning to “5-difluoromethoxy-2-[[3,4-dimethoxy-2-pyridinyl)methyl]sulfinyl]-1H-benzimidazole magnesium salt [Form E]”, in data set [1], the “particle shape / description” value is listed as “plate-shaped particles” and the particle size result is “less than 20 microns”.

Consider “5-difluoromethoxy-2-[[3,4-dimethoxy-2-pyridinyl)methyl]sulfinyl]-1H-benzimidazole magnesium salt [Form F]”, for which the “particle shape / description” value in data set [1] is listed as “spherical particles”.

Consider “5-difluoromethoxy-2-[[3,4-dimethoxy-2-pyridinyl)methyl]sulfinyl]-1H-benzimidazole magnesium salt [amorphous pantoprazole magnesium]”, for which the solubility entry in data set [2] is reported as “about 1.3 mg/ml”. Moreover, in data set [2] (in water, amorphous form versus Form A prepared according to the '464 patent), the “solubility in water relative to crystalline Form A” value was “approximately 6.5 times”.
